What was measured:
Experiment in all cases: preemergence treatment in the greenhouse, % damage
Sorgh. bicol. = type: in vivo, Sorghum bicolor; settings: 0.5 kg/ha
Text: (§1) The vessels employed were plastic flowerpots having a volume of 300 cm^3; the substrate was a sandy loam containing about 1.5% humus. The seeds of the test plants (see Table 1) were sown shallow, and separated according to species. In the case of Cyperus esculentus, pregerminated tubers were planted. In the preemergence treatment, the active ingredients were then immediately applied to the surface of the soil. They were suspended or emulsified in water as the vehicle, and sprayed through atomizing nozzles. After the agents had been applied, the vessels were lightly sprinkler-irrigated to set germination and growth going, and to activate the chemical agents. The vessels were then covered with transparent plastic hoods until the plants had taken root. This cover ensured uniform germination of the test plants (to the extent that this was not impaired by the chemicals), and prevented readily volatile substances from evaporating.
(§2) For postemergence treatment, the plants were first grown to a height of from 3 to 10 cm, depending on their habit, before treated. Hoods were not placed on the pots. The experiments were set up in the greenhouse, hotter areas (25° to 40° C.) being preferred for heat-loving species, and 15° to 30° C. for plants from moderate climates. The experiments were carried out for from 4 to 6 weeks. During this period the plants were tended and their reaction to the various treatments was assessed. The following tables contain the substances investigated, the application rates in kg/ha of active ingredient, and the test plant species. Assessments were made on a 0 to 100 scale, 0 denoting no damage or normal emergence, and 100 denoting no emergence or complete destruction of at least the visible plant parts.

Glyc. max = type: in vivo, Glycine max
Text: as §1, §2

Amar. retro. = type: in vivo
Text: as §1, §2

Zea mays = type: in vivo; settings: 0.5 kg/ha
Text: as §1, §2

Alopec. myosur. = type: in vivo
Text: as §1, §2

Setaria spp. = type: in vivo
Text: as §1, §2

Beta vulg. = type: in vivo, Beta vulgaris
Text: as §1, §2

Cyp. diff. = type: in vivo
Text: as §1, §2

Sorgh. halep. = type: in vivo
Text: as §1, §2

Echin. c.g. = type: in vivo
Text: as §1, §2

Matric. spp. = type: in vivo
Text: as §1, §2

Bromus spp. = type: in vivo
Text: as §1, §2

CCc1ccccc1N(Cn1ccc(C)n1)C(=O)CCl [Compound 69]
% damage (Sorgh. bicol.): 10%
% damage (Glyc. max; 0.5 kg/ha): 20%
% damage (Amar. retro.; 0.5 kg/ha): 95%
% damage (Zea mays): 0%
% damage (Alopec. myosur.; 0.5 kg/ha): 100%
% damage (Setaria spp.; 0.5 kg/ha): 80%
% damage (Beta vulg.; 0.5 kg/ha): 20%

CCc1cccc(CC)c1N(Cn1nc(C)nc1C)C(=O)CCl [Compound 162]
% damage (Amar. retro.; 2.0 kg/ha): 100%
% damage (Cyp. diff.; 2.0 kg/ha): 100%
% damage (Alopec. myosur.; 2.0 kg/ha): 95%
% damage (Setaria spp.; 2.0 kg/ha): 100%
% damage (Sorgh. halep.; 2.0 kg/ha): 95%
% damage (Echin. c.g.; 2.0 kg/ha): 100%

CC(C)c1cccc(C(C)C)c1N(Cn1cccn1)C(=O)CCl [Compound 11]
% damage (Amar. retro.; 2.0 kg/ha): 90%
% damage (Cyp. diff.; 2.0 kg/ha): 100%
% damage (Alopec. myosur.; 2.0 kg/ha): 90%
% damage (Setaria spp.; 2.0 kg/ha): 80%
% damage (Sorgh. halep.; 2.0 kg/ha): 70%
% damage (Echin. c.g.; 2.0 kg/ha): 100%

CCc1cccc(C)c1N(Cn1cc(Cl)cn1)C(=O)CCl
% damage (Matric. spp.; 1.0 kg/ha): 60%
% damage (Alopec. myosur.; 1.0 kg/ha): 90%
% damage (Setaria spp.; 1.0 kg/ha): 85%
% damage (Bromus spp.; 1.0 kg/ha): 90%
% damage (Echin. c.g.; 1.0 kg/ha): 100%
% damage (Beta vulg.; 1.0 kg/ha): 0%

Cc1cc(C)n(CN(C(=O)CCl)c2c(C(C)C)cccc2C(C)C)n1 [Compound 44]
% damage (Amar. retro.; 2.0 kg/ha): 80%
% damage (Cyp. diff.; 2.0 kg/ha): 100%
% damage (Alopec. myosur.; 2.0 kg/ha): 80%
% damage (Setaria spp.; 2.0 kg/ha): 90%
% damage (Sorgh. halep.; 2.0 kg/ha): 40%
% damage (Echin. c.g.; 2.0 kg/ha): 90%

Cc1cccc(N(Cn2cncn2)C(=O)CCl)c1C [Compound 139]
% damage (Amar. retro.; 2.0 kg/ha): 40%
% damage (Cyp. diff.; 2.0 kg/ha): 90%
% damage (Alopec. myosur.; 2.0 kg/ha): 70%
% damage (Setaria spp.; 2.0 kg/ha): 30%
% damage (Sorgh. halep.; 2.0 kg/ha): 50%
% damage (Echin. c.g.; 2.0 kg/ha): 90%

CCc1cccc(CC)c1N(Cn1cccn1)C(=O)CCl [Compound 8]
% damage (Amar. retro.; 0.25 kg/ha): 95%
% damage (Bromus spp.; 0.25 kg/ha): 100%
% damage (Sorgh. halep.; 0.25 kg/ha): 85%

CCc1cccc(CC)c1N(Cn1ccc(C)n1)C(=O)CCl [Compound 70]
% damage (Amar. retro.; 0.25 kg/ha): 100%
% damage (Bromus spp.; 0.25 kg/ha): 100%
% damage (Sorgh. halep.; 0.25 kg/ha): 75%

CC(C)c1ccccc1N(Cn1cccn1)C(=O)CCl [Compound 4]
% damage (Amar. retro.; 2.0 kg/ha): 95%
% damage (Cyp. diff.; 2.0 kg/ha): 90%
% damage (Alopec. myosur.; 2.0 kg/ha): 95%
% damage (Setaria spp.; 2.0 kg/ha): 90%
% damage (Sorgh. halep.; 2.0 kg/ha): 65%
% damage (Echin. c.g.; 2.0 kg/ha): 100%

Cc1cc(C)c(N(Cn2cccn2)C(=O)CCl)c(C)c1 [Compound 13]
% damage (Amar. retro.; 2.0 kg/ha): 100%
% damage (Cyp. diff.; 2.0 kg/ha): 90%
% damage (Alopec. myosur.; 2.0 kg/ha): 80%
% damage (Setaria spp.; 2.0 kg/ha): 90%
% damage (Sorgh. halep.; 2.0 kg/ha): 80%
% damage (Echin. c.g.; 2.0 kg/ha): 100%

Cc1cc(C)c(N(Cn2nc(C)cc2C)C(=O)CCl)c(C)c1 [Compound 46]
% damage (Amar. retro.; 1.0 kg/ha): 90%
% damage (Cyp. diff.; 1.0 kg/ha): 100%
% damage (Alopec. myosur.; 1.0 kg/ha): 60%
% damage (Setaria spp.; 1.0 kg/ha): 100%
% damage (Sorgh. halep.; 1.0 kg/ha): 80%
% damage (Echin. c.g.; 1.0 kg/ha): 100%

CCc1ccccc1N(Cn1nc(C)cc1C)C(=O)CCl [Compound 36]
% damage (Amar. retro.; 0.5 kg/ha): 95%
% damage (Amar. retro.; 1.0 kg/ha): 95%
% damage (Alopec. myosur.; 0.5 kg/ha): 90%
% damage (Alopec. myosur.; 1.0 kg/ha): 100%
% damage (Setaria spp.; 0.5 kg/ha): 90%
% damage (Setaria spp.; 1.0 kg/ha): 95%
% damage (Sorgh. halep.; 0.5 kg/ha): 40%
% damage (Sorgh. halep.; 1.0 kg/ha): 40%
% damage (Echin. c.g.; 0.5 kg/ha): 80%
% damage (Echin. c.g.; 1.0 kg/ha): 95%

Cc1cnn(CN(C(=O)CCl)c2c(C)cccc2C)c1
% damage (Glyc. max; 0.5 kg/ha): 0%
% damage (Glyc. max; 1.0 kg/ha): 10%
% damage (Matric. spp.; 0.5 kg/ha): 100%
% damage (Matric. spp.; 1.0 kg/ha): 100%
% damage (Alopec. myosur.; 0.5 kg/ha): 90%
% damage (Alopec. myosur.; 1.0 kg/ha): 95%
% damage (Setaria spp.; 0.5 kg/ha): 92%
% damage (Setaria spp.; 1.0 kg/ha): 100%
% damage (Bromus spp.; 0.5 kg/ha): 95%
% damage (Bromus spp.; 1.0 kg/ha): 95%
% damage (Echin. c.g.; 0.5 kg/ha): 98%
% damage (Echin. c.g.; 1.0 kg/ha): 98%
% damage (Beta vulg.; 0.5 kg/ha): 0%
% damage (Beta vulg.; 1.0 kg/ha): 0%

Cc1cccc(N(Cn2cccn2)C(=O)CCl)c1C [Compound 17]
% damage (Amar. retro.; 2.0 kg/ha): 90%
% damage (Cyp. diff.; 2.0 kg/ha): 100%
% damage (Alopec. myosur.; 2.0 kg/ha): 50%
% damage (Setaria spp.; 2.0 kg/ha): 90%
% damage (Sorgh. halep.; 2.0 kg/ha): 75%
% damage (Echin. c.g.; 2.0 kg/ha): 100%

— patent US4593104A, “2-halo-N-(azole-1-yl-methyl)-substituted acetanilides” (BASF Aktiengesellschaft, priority 1976, dated 1986)
